From ChEMBL document CHEMBL1201862, “PubChem BioAssay data set” (2004)
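Interpolation was linear, between the two tested concentrations surrounding the appropriate level; five concentrations were tested over 48 hours in 96-well plates. GI50: concentration for 50% inhibition of growth.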 Activity calls are given as the source filed them. No stated cut-off is given here; in the data, active = GI50 up to about 1.1 µM and inactive = higher.

Assays:
Experiment in all cases: inhibition of tumour cell growth, NCI panel, 48 h
SW-620 = system: SW-620
MDA-MB-231 = system: MDA-MB-231
OVCAR-8 = system: OVCAR-8
A549 = system: A549
CCRF-CEM = system: CCRF-CEM
786-0 = system: 786-0
EKVX = system: EKVX
T47D = system: T47D
SF-295 = system: SF-295
DU-145 = system: DU-145
MDA-MB-435 = system: MDA-MB-435
SN12C = system: SN12C
NCI-H23 = system: NCI-H23
SK-OV-3 = system: SK-OV-3
MCF7 = system: MCF7
ACHN = system: ACHN
OVCAR-4 = system: OVCAR-4
NCI-H226 = system: NCI-H226
HCC 2998 = system: HCC 2998
MDA-N = system: MDA-N

Row | SMILES | GI50 (SW-620) | GI50 (MDA-MB-231) | GI50 (OVCAR-8) | GI50 (A549) | GI50 (CCRF-CEM) | GI50 (786-0) | GI50 (EKVX) | GI50 (T47D) | GI50 (SF-295) | GI50 (DU-145) | GI50 (MDA-MB-435) | GI50 (SN12C) | GI50 (NCI-H23) | GI50 (SK-OV-3) | GI50 (MCF7) | GI50 (ACHN) | GI50 (OVCAR-4) | GI50 (NCI-H226) | GI50 (HCC 2998) | GI50 (MDA-N)
1 | Cc1ccc(C(=N)c2ccccc2Cc2cccc3ccccc23)c2ccccc12 | 71 µM (inactive) | > 100 µM (inactive) | > 100 µM (inactive) | 54.3 µM (inactive) | 82.6 µM (inactive) | > 100 µM (inactive) | 60.1 µM (inactive) | 65.3 µM (inactive) | 71.4 µM (inactive) | > 100 µM (inactive) | > 100 µM (inactive) | > 100 µM (inactive) | 95.3 µM (inactive) | > 100 µM (inactive) | 42.6 µM (inactive) | > 100 µM (inactive) | > 100 µM (inactive) | > 100 µM (inactive) | – | –
2 | Nc1nc[n+](Cc2ccccc2)c2ncn(Cc3ccccc3)c12 | > 100 µM (inactive) | – | > 100 µM (inactive) | > 100 µM (inactive) | > 100 µM (inactive) | > 100 µM (inactive) | > 100 µM (inactive) | – | 63.8 µM (inactive) | – | – | > 100 µM (inactive) | 97.7 µM (inactive) | > 100 µM (inactive) | – | > 100 µM (inactive) | > 100 µM (inactive) | > 100 µM (inactive) | 15.5 µM (inactive) | –
3 | CN(C)C(=O)C(F)(F)C(c1ccccc1)C1C(=O)N(C)C(=O)N(C)C1=O (configuration not stated) | > 100 µM (inactive) | > 100 µM (inactive) | > 100 µM (inactive) | > 100 µM (inactive) | > 100 µM (inactive) | > 100 µM (inactive) | > 100 µM (inactive) | > 100 µM (inactive) | > 100 µM (inactive) | > 100 µM (inactive) | > 100 µM (inactive) | – | > 100 µM (inactive) | > 100 µM (inactive) | > 100 µM (inactive) | > 100 µM (inactive) | > 100 µM (inactive) | > 100 µM (inactive) | > 100 µM (inactive) | –
4 | N/C(=N\c1ccccc1)c1ccccc1N | > 100 µM (inactive) | > 100 µM (inactive) | > 100 µM (inactive) | > 100 µM (inactive) | 40.6 µM (inactive) | > 100 µM (inactive) | > 100 µM (inactive) | – | > 100 µM (inactive) | > 100 µM (inactive) | > 100 µM (inactive) | – | > 100 µM (inactive) | > 100 µM (inactive) | > 100 µM (inactive) | > 100 µM (inactive) | > 100 µM (inactive) | > 100 µM (inactive) | > 100 µM (inactive) | > 100 µM (inactive)
5 | COC(=O)/C(=N\N)C(C(=O)C(=O)Nc1nnc(S)[nH]1)c1nc2ccc([N+](=O)[O-])cc2nc1O (configuration not stated) | > 100 µM (inactive) | – | > 100 µM (inactive) | > 100 µM (inactive) | > 100 µM (inactive) | > 100 µM (inactive) | > 100 µM (inactive) | – | > 100 µM (inactive) | – | – | > 100 µM (inactive) | > 100 µM (inactive) | > 100 µM (inactive) | – | > 100 µM (inactive) | > 100 µM (inactive) | > 100 µM (inactive) | > 100 µM (inactive) | –
6 | Cc1cc2c(cc1Cl)SC(NNC(=O)c1ccccc1)=NS2(=O)=O | > 10 µM (inactive) | > 10 µM (inactive) | > 10 µM (inactive) | > 10 µM (inactive) | > 10 µM (inactive) | > 10 µM (inactive) | > 10 µM (inactive) | > 10 µM (inactive) | > 10 µM (inactive) | > 10 µM (inactive) | > 10 µM (inactive) | > 10 µM (inactive) | > 10 µM (inactive) | > 10 µM (inactive) | 2.21 µM (inactive) | > 10 µM (inactive) | > 10 µM (inactive) | > 10 µM (inactive) | > 10 µM (inactive) | –
7 | O=C1/C(=C\c2ccccc2)c2ccccc2N1/N=C\c1ccccc1 | 59 µM (inactive) | – | > 100 µM (inactive) | 76.2 µM (inactive) | 49.2 µM (inactive) | 81.5 µM (inactive) | 23.2 µM (inactive) | – | > 100 µM (inactive) | – | – | > 100 µM (inactive) | > 100 µM (inactive) | > 100 µM (inactive) | – | > 100 µM (inactive) | > 100 µM (inactive) | > 100 µM (inactive) | 50.4 µM (inactive) | –
8 | CC12CP(=O)(O)CC1C2(Cl)Cl (configuration not stated) | > 100 µM (inactive) | > 100 µM (inactive) | > 100 µM (inactive) | > 100 µM (inactive) | > 100 µM (inactive) | > 100 µM (inactive) | > 100 µM (inactive) | > 100 µM (inactive) | > 100 µM (inactive) | > 100 µM (inactive) | > 100 µM (inactive) | > 100 µM (inactive) | > 100 µM (inactive) | > 100 µM (inactive) | > 100 µM (inactive) | > 100 µM (inactive) | > 100 µM (inactive) | > 100 µM (inactive) | > 100 µM (inactive) | –
9 | CC1=CCN(c2ccccn2)OC1c1ccccc1 (configuration not stated) | > 100 µM (inactive) | – | > 100 µM (inactive) | > 100 µM (inactive) | > 100 µM (inactive) | > 100 µM (inactive) | > 100 µM (inactive) | – | > 100 µM (inactive) | – | – | > 100 µM (inactive) | > 100 µM (inactive) | > 100 µM (inactive) | – | > 100 µM (inactive) | > 100 µM (inactive) | > 100 µM (inactive) | > 100 µM (inactive) | –
10 | CC1(C)COC(C23C4C5C2C2C3C4C52I)=N1 (configuration not stated) | > 100 µM (inactive) | – | > 100 µM (inactive) | > 100 µM (inactive) | > 100 µM (inactive) | > 100 µM (inactive) | > 100 µM (inactive) | – | > 100 µM (inactive) | – | – | > 100 µM (inactive) | > 100 µM (inactive) | > 100 µM (inactive) | – | > 100 µM (inactive) | > 100 µM (inactive) | > 100 µM (inactive) | > 100 µM (inactive) | –
11 | CCOC(=O)C1C(=O)c2cccc(OC)c2C2COC(=O)N12 (configuration not stated) | > 100 µM (inactive) | – | > 100 µM (inactive) | > 100 µM (inactive) | > 100 µM (inactive) | > 100 µM (inactive) | > 100 µM (inactive) | – | > 100 µM (inactive) | – | – | > 100 µM (inactive) | > 100 µM (inactive) | > 100 µM (inactive) | – | > 100 µM (inactive) | > 100 µM (inactive) | > 100 µM (inactive) | > 100 µM (inactive) | –
12 | SC1=NNC2(C(S)=N1)c1ccccc1-c1ccccc12 | > 10 µM (inactive) | > 10 µM (inactive) | > 10 µM (inactive) | > 10 µM (inactive) | > 10 µM (inactive) | > 10 µM (inactive) | > 10 µM (inactive) | 4.83 µM (inactive) | – | > 10 µM (inactive) | – | > 10 µM (inactive) | > 10 µM (inactive) | > 10 µM (inactive) | 5.37 µM (inactive) | – | > 10 µM (inactive) | 8.81 µM (inactive) | > 10 µM (inactive) | –
13 | COc1c(OC(C)C)c(OC(C)C)c2oc(=O)n3c2c1C(c1ccccc1-n1c(C)ccc1C)C=C3 (configuration not stated) | 32.5 µM (inactive) | 45 µM (inactive) | 35.3 µM (inactive) | 39.4 µM (inactive) | 71.9 µM (inactive) | 80.7 µM (inactive) | 17.6 µM (inactive) | – | 74.3 µM (inactive) | 60.4 µM (inactive) | 35.2 µM (inactive) | 71.9 µM (inactive) | 34.8 µM (inactive) | > 100 µM (inactive) | 33 µM (inactive) | 48.8 µM (inactive) | 75 µM (inactive) | 17.1 µM (inactive) | 37.9 µM (inactive) | 29.2 µM (inactive)
14 | O=c1[nH]nc(-c2ccccc2)c(-c2ccccc2)c1-n1nc(-c2ccccc2)c2ccccc2c1=O | 99.5 µM (inactive) | – | 92 µM (inactive) | 83.4 µM (inactive) | 27.9 µM (inactive) | > 100 µM (inactive) | > 100 µM (inactive) | – | 43.2 µM (inactive) | – | – | > 100 µM (inactive) | > 100 µM (inactive) | > 100 µM (inactive) | – | 50.8 µM (inactive) | > 100 µM (inactive) | > 100 µM (inactive) | > 100 µM (inactive) | –
15 | O=[N+]([O-])c1ccc(C2CC(c3ccccc3Cl)=Nc3ccccc3S2)cc1 (configuration not stated) | 1.78 µM (inactive) | – | 2.2 µM (inactive) | 5.69 µM (inactive) | 2.07 µM (inactive) | 3.69 µM (inactive) | 14.5 µM (inactive) | – | 7.5 µM (inactive) | – | – | 4.02 µM (inactive) | 6.15 µM (inactive) | 29 µM (inactive) | – | 7.85 µM (inactive) | 9.84 µM (inactive) | 6.87 µM (inactive) | 23.9 µM (inactive) | –
16 | CC1/C=C/[C@@]2(C)CCC(C(C)(C)O)C2C(O)C[C@](C)(O)/C=C/C1 (some centres not stated) | > 100 µM (inactive) | – | > 100 µM (inactive) | > 100 µM (inactive) | > 100 µM (inactive) | 21.7 µM (inactive) | > 100 µM (inactive) | – | > 100 µM (inactive) | – | – | > 100 µM (inactive) | > 100 µM (inactive) | > 100 µM (inactive) | – | > 100 µM (inactive) | > 100 µM (inactive) | 7.31 µM (inactive) | > 100 µM (inactive) | –
17 | COc1cc2c(c(OC)c1OC)-c1ccc(SC)c(=O)cc1[C@@H](NCc1cccc([N+](=O)[O-])c1)CC2 | < 0.01 µM (active) | – | < 0.01 µM (active) | < 0.01 µM (active) | < 0.01 µM (active) | < 0.01 µM (active) | < 0.01 µM (active) | – | < 0.01 µM (active) | – | – | < 0.01 µM (active) | < 0.01 µM (active) | < 0.01 µM (active) | – | < 0.01 µM (active) | < 0.01 µM (active) | < 0.01 µM (active) | < 0.01 µM (active) | –
